Laboratory results as given in patent US8460925B2, “Methods for culturing mammalian taste cells” (priority 2004, dated 2013).

Experiments:
cultured taste cells = experiment: Response of cultured taste cells to taste stimuli by Ca-imaging (fura-2); type: cell-based, rat; details: elevation of intracellular calcium
Protocol: Taste cells employed are isolated as described in Example 1 and cultured for 1 week or 2 months on rat tail collagen type 1-coated coverslips.
(§1) Ca-imaging is performed as follows. The coverslips are incubated for 15-30 minutes with calcium sensitive dye in Modified MHNK ringer's solution (80 mM NaCl, 5 mM KCl, 1 mM MgCl2, 1 mM CaCl2, 1 mM Na-pyruvate, and 20 mM Hepes-Na, pH 7.2 with osmolarity adjusted to 300-310 by 5M NaCl) supplemented with […] (Molecular Probes Inc., Eugene, Oreg.) and 20 mg/ml PLURONIC® F127 (Molecular Probes Inc.). The calcium sensitive dye fura-2 AM is cleaved to fura-2 which is fluorescent and can be detected.
After incubation, coverslips are placed in a recording chamber and continuously bathed with Modified MHNK Ringer's solution that is applied as superfusion.
The stimuli (Denatonium benzoate 2 mM and 0.5 mM, Acesulfame K 250 ppm, Monosodium glutamate (MSG) 3 mM, Cycloheximide 25 μM, Glycine 125 mM, and High K buffer (modified Modified MHNK ringer's solution with 5 mM NaCl, 80 mM KCl, 1 mM MgCl2, 1 mM CaCl2, 1 mM Na-pyruvate, and 20 mM Hepes-Na, pH 7.2 with osmolarity adjusted to 300-310 by 5M NaCl) are applied to the coverslip by switching the superfusion to the stimulus solution, which allows for a complete change of bath solutions in the chamber within 10 seconds.
Calcium imaging recordings are performed using standard imaging techniques as described by Restrepo D., M. Zviman and N. E. Rawson, “The measurement of intracellular calcium in chemosensory cells”, in: Methods in Chemosensory Research, Ed. by A. Spielman and J. Brand. CRC Press, 1995. […] Emitted light from fura-2 in the cells under 200× magnification is filtered at 510 nm and recorded with a cooled CCD camera (Olympix, Perkin Elmer Life Sciences, Bethesda Md.). The excitation wavelength is 340-380 nm and the emission wavelength is 510 nm using a wide band filter. Images are digitalized using a Merlin Imaging Workstation (Perkin Elmer Life Sciences, Bethesda Md.), which controls illuminator, camera, and acquisition, and performs the image ratioing and the display of pseudocolor images.
Stimuli are diluted in Modified MHNK ringer's solution and applied via a gravity-flow superfusion apparatus for about 10-60 seconds, depending on the stimulus. […] Typically several cells are tested.

mouse T2R5 = biological target: T1, mouse T2R5 (Mus musculus, UniProt Q9JKT4); experiment: Calcium imaging of cultured taste cells transfected with mT2R5; type: cell-based
T1 construct: sst (N-terminal export tag; by own knowledge of Bufe et al. 2002, the first 45 residues of rat somatostatin receptor type 3) (N); expressed in transfected cells; host or cells: primary cultured rat taste cells on rat tail collagen-1-coated coverslips
T1 sequence (Q9JKT4 1-300): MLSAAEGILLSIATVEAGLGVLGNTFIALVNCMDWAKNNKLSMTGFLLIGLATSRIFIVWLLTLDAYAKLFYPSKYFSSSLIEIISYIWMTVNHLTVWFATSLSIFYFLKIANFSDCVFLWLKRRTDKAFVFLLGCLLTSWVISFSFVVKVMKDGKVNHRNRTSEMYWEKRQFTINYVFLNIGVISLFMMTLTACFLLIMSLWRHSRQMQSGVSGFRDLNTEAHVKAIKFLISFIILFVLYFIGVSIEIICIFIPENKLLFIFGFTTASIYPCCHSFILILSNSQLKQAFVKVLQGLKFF
Protocol: as §1
(§2) Calcium imaging recordings are performed using standard imaging techniques as described by Restrepo D., M. Zviman and N. E. Rawson, “The measurement of intracellular calcium in chemosensory cells”, in: Methods in Chemosensory Research, Ed. by A. Spielman and J. Brand. CRC Press, 1995. Illumination is provided by a LSR SPECTRAMASTER monochromator coupled to the microscope. Emitted light from fura-2 in the cells under 200× magnification is filtered at 510 nm and recorded with a cooled CCD camera (Olympix, Perkin Elmer Life Sciences, Bethesda Md.). The excitation wavelength is 340-380 nm and the emission wavelength is 510 nm using a wide band filter. Images are digitalized using a Merlin Imaging Workstation (Perkin Elmer Life Sciences, Bethesda Md.), which controls illuminator, camera, and acquisition, and performs the image ratioing and the display of pseudocolor images. […]

human T2R16 = biological target: T2, human T2R16 (Homo sapiens, UniProt Q9NYV7); experiment: Calcium imaging of cultured taste cells transfected with hT2R16; type: cell-based
T2 construct: expressed in transfected cells; host or cells: primary cultured rat taste cells on rat tail collagen-1-coated coverslips
T2 sequence (Q9NYV7 1-291): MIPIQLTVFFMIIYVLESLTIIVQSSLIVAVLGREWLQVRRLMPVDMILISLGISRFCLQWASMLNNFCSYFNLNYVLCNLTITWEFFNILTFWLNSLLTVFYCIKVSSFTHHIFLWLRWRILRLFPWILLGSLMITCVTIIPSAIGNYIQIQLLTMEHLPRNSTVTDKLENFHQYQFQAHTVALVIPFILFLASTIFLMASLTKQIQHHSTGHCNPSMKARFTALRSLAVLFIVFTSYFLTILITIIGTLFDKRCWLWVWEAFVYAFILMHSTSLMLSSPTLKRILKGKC
Protocol: as §1, §2

SMILES | activation of cultured taste cells by taste stimulants as shown by calcium imaging (cultured taste cells) | effective concentration for increase in intracellular calcium (mouse T2R5) | effective concentration for increase in intracellular calcium (human T2R16)
CC1=CC(=O)NS(=O)(=O)O1.[K] [Acesulfame K, 6-Methyl-1,2,3-oxathiazin-4(3H)-one 2,2-dioxide potassium salt] | activated |  | 
CC1CC(C)C(=O)C(C(O)CC2CC(=O)NC(=O)C2)C1 (stereo not shown) [Cycloheximide, 3-[2-(3,5-Dimethyl-2-oxocyclohexyl)-2-hydroxyethyl]glutarimide] | activated | 1 µM | 
CC[N+](CC)(CC(=O)Nc1c(C)cccc1C)Cc1ccccc1 [Denatonium, Denatonium benzoate] | activated |  | 
NCC(=O)O [Glycine] | activated |  | 
N[C@@H](CCC(=O)O)C(=O)[O-].[Na+] [MSG, Monosodium glutamate] | activated |  | 
OC[C@H]1O[C@@H](Oc2ccccc2)[C@H](O)[C@@H](O)[C@@H]1O [phenyl-beta-D-glucopyranoside] |  |  | 1 milliM
